Reference: patent publication US20230017045A1, “PYRIDINE AND PYRIMIDINE CARBOXYLATE HERBICIDES AND METHODS OF USE THEREOF” (Dow AgroSciences LLC, priority 2017, published 2023)
Like-named read-outs stand apart in the source and are kept apart here.

Tested on: test plant species
Assay: Post-emergent herbicidal activity test (greenhouse, foliar spray, visual growth reduction)
Format: in vivo
Conditions: post-emergence, 336 h, 140 g ai/ha, 14 days after application
Procedure, shortened: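 Scoring used a 0 to 100 percent visual scale of growth reduction against solvent-treated controls, read 14 d after spraying. Applications went onto plants at first or second true leaf stage, 187 L/ha, with crop oil concentrate and X-77 surfactant in the carrier. Post-treatment watering was by subirrigation to avoid wash-off.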

[1] = ALOMY: blackgrass (Alopecurus myosuroides), read-out: Visual Growth Reduction (%) 14 Days After Application, ALOMY
[2] = AMARE: redroot pigweed (Amaranthus retroflexus), read-out: Visual Growth Reduction (%) 14 Days After Application, AMARE
[3] = AVEFA: wild oat (Avena fatua), read-out: Visual Growth Reduction (%) 14 Days After Application, AVEFA
[4] = CHEAL: lambsquarters (Chenopodium album), read-out: Visual Growth Reduction (%) 14 Days After Application, CHEAL
[5] = CIRAR: canada thistle (Cirsium arvense), read-out: Visual Growth Reduction (%) 14 Days After Application, CIRAR
[6] = CYPES: yellow nutsedge (Cyperus esculentus), read-out: Visual Growth Reduction (%) 14 Days After Application, CYPES
[7] = DIGSA: crabgrass (Digitaria sanguinalis), read-out: Visual Growth Reduction (%) 14 Days After Application, DIGSA
[8] = ECHCG: barnyardgrass (Echinochloa crus-galli), read-out: Visual Growth Reduction (%) 14 Days After Application, ECHCG
[9] = IPOHE: ivy-leaf morning glory (Ipomoea hederacea), read-out: Visual Growth Reduction (%) 14 Days After Application, IPOHE
[10] = KCHSC: kochia (Bassia scoparia), read-out: Visual Growth Reduction (%) 14 Days After Application, KCHSC
[11] = ORYSA: rice (Oryza sativa), read-out: Visual Growth Reduction (%) 14 Days After Application, ORYSA
[12] = SETFA: giant foxtail (Setaria faberi), read-out: Visual Growth Reduction (%) 14 Days After Application, SETFA
[13] = SORVU: grain sorghum (Sorghum vulgare), read-out: Visual Growth Reduction (%) 14 Days After Application, SORVU
[14] = STEME: common chickweed (Stellaria media), read-out: Visual Growth Reduction (%) 14 Days After Application, STEME
[15] = TRZAS: wheat, spring (Triticum aestivum), read-out: Visual Growth Reduction (%) 14 Days After Application, TRZAS

SMILES	pest or weed control at 140 g/ha [1] [%]	pest or weed control at 140 g/ha [2] [%]	pest or weed control at 140 g/ha [3] [%]	pest or weed control at 140 g/ha [4] [%]	pest or weed control at 140 g/ha [5] [%]	pest or weed control at 140 g/ha [6] [%]	pest or weed control at 140 g/ha [7] [%]	pest or weed control at 140 g/ha [8] [%]	pest or weed control at 140 g/ha [9] [%]	pest or weed control at 140 g/ha [10] [%]	pest or weed control at 140 g/ha [11] [%]	pest or weed control at 140 g/ha [12] [%]	pest or weed control at 140 g/ha [13] [%]	pest or weed control at 140 g/ha [14] [%]	pest or weed control at 140 g/ha [15] [%]
COC(=O)c1nc(-c2cc3c(cc2Cl)OC(F)(F)O3)c(Cl)cc1Cl [F154, Methyl 3,5-dichloro-6-(6-chloro-2,2-difluorobenzo[d] [1,3]dioxol-5-yl)picolinate]	0 to 29	85 to 94	0 to 29	85 to 94	0 to 29	0 to 29	60 to 74	0 to 29	95 to 100	0 to 29	0 to 29	45 to 59	60 to 74	0 to 29	0 to 29
COC(=O)c1nc(-c2cc3c(cc2Cl)OCO3)c(Cl)cc1Cl [F155, Methyl 3,5-dichloro-6-(6-chlorobenzo[d] [1,3]dioxol-5-yl)picolinate]	0 to 29	60 to 74	0 to 29	75 to 84	0 to 29	0 to 29	0 to 29	0 to 29	0 to 29	0 to 29	0 to 29	0 to 29	0 to 29	0 to 29	0 to 29
O=C(O)c1nc(-c2c(Cl)cc(C(F)(F)F)cc2Cl)ccc1Cl [F156, 3-Chloro-6-(2,6-dichloro-4-(trifluoromethyl)phenyl)picolinic acid]	45 to 59	95 to 100	0 to 29	85 to 94	75 to 84	0 to 29	85 to 94	75 to 84	95 to 100	85 to 94	45 to 59	95 to 100	75 to 84	0 to 29	60 to 74
COC(=O)c1nc(-c2ccc(OC(F)F)cc2Cl)ccc1Cl [F157, methyl 3-chloro-6-(2-chloro-4-(difluoromethoxy)phenyl)picolinate]	0 to 29	95 to 100	45 to 59	85 to 94	85 to 94	0 to 29	85 to 94	85 to 94	95 to 100	85 to 94	0 to 29	85 to 94	95 to 100	0 to 29	60 to 74
COC(=O)c1nc(-c2ccc(C(F)(F)F)cc2F)c(F)cc1Cl [F158, methyl 3-chloro-5-fluoro-6-(2-fluoro-4-(trifluoromethyl)phenyl)picolinate]	0 to 29	95 to 100	30 to 44	95 to 100	85 to 94	0 to 29	85 to 94	45 to 59	95 to 100	60 to 74	0 to 29	75 to 84	75 to 84	0 to 29	60 to 74
COC(=O)c1nc(-c2ccc(OS(C)(=O)=O)cc2)c(F)cc1Cl [F159, Methyl 3-chloro-5-fluoro-6-(4-((methylsulfonyl)oxy)phenyl)picolinate]	0 to 29	60 to 74	0 to 29	45 to 59	30 to 44	0 to 29	60 to 74	30 to 44	45 to 59	0 to 29	0 to 29	60 to 74	30 to 44	0 to 29	0 to 29
O=C(O)c1nc(-c2ccc(C(F)(F)F)cc2F)c(F)cc1Cl [F160, 3-Chloro-5-fluoro-6-(2-fluoro-4-(trifluoromethyl)phenyl) picolinic acid]	75 to 84	95 to 100	85 to 94	95 to 100	85 to 94	60 to 74	85 to 94	95 to 100	95 to 100	95 to 100	60 to 74	85 to 94	95 to 100	30 to 44	85 to 94
COC(=O)c1nc(-c2ccc(OC(F)F)cc2OC)c(F)cc1Cl [F161 (F393)]	0 to 29	95 to 100	75 to 84	85 to 94	85 to 94	0 to 29	45 to 59								
COC(=O)c1nc(-c2ccc(OC(F)F)cc2OC)c(F)cc1Cl [F161, Methyl 3-chloro-6-4-(difluoromethoxy)-2-methoxyphenyl)-5-fluoropicolinate]								85 to 94	95 to 100	85 to 94	0 to 29	85 to 94	95 to 100	30 to 44	60 to 74
N#Cc1cc(C(F)(F)F)cc(Cl)c1-c1ccc(Cl)c(C(=O)O)n1 [F162, 3-Chloro-6-(2-chloro-6-cyano-4-(trifluoromethyl)phenyl)picolinic acid]	0 to 29	95 to 100	30 to 44	95 to 100	85 to 94	0 to 29	75 to 84	95 to 100	95 to 100	95 to 100	0 to 29	85 to 94	60 to 74	0 to 29	45 to 59
COC(=O)c1nc(-c2ccc(OCC(F)(F)F)cc2)c(F)cc1Cl [F163, Methyl 3-chloro-5-fluoro-6-(4-(2,2,2-trifluoroethoxy)phenyl) picolinate]	0 to 29	30 to 44	0 to 29	45 to 59	0 to 29	0 to 29	0 to 29	0 to 29	45 to 59	0 to 29	0 to 29	0 to 29	0 to 29	0 to 29	0 to 29
O=C(O)c1nc(-c2ncc(C(F)(F)F)cc2Cl)ccc1Cl [F164, 3′,5-Dichloro-5′-(trifluoromethyl)-[2,2′-bipyridine]-6-carboxylic acid]	60 to 74	95 to 100	60 to 74	95 to 100	85 to 94	0 to 29	95 to 100	85 to 94	95 to 100	95 to 100	60 to 74	95 to 100	85 to 94	30 to 44	85 to 94
